Values of other authors as cited in patent publication US20040180086A1 (priority 2002, published 2004).

Test system: decarboxylation of peripheral levodopa
Settings: carbidopa administered in combination with levodopa

C[C@@](Cc1ccc(O)c(O)c1)(NN)C(=O)O [Carbidopa, S-α-hydrazino-3,4-dihydroxy-α-methylbenzenepropanoic acid monohydrate]
reduction of the amount of levodopa required to produce a given response: about 75%
